Measured values as given in US11866430B2, “Naphthyridinone compounds useful as T cell activators” (priority 2018, dated 2024).
pEC50, pIC50: −log10 of the molar value. Where two headings read alike, the source gives them in different places.

Key:
human DGKα = human DGKα (Homo sapiens (Human), UniProt P23743); experiment: biochemical; settings: detergent/lipid micelle substrate; read-out: DGKα IC50
Procedure, shortened: (§1)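 Full-length human DGKζ (and DGKα), C-terminal His-tagged, Sf9-expressed, with phosphatidylserine/DAG micelles in 50 mM octyl glucoside; buffer 50 mM MOPS pH 7.5, 100 mM NaCl, 10 mM MgCl2, 1 μM CaCl2, 1 mM DTT.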

human DGKζ = human DGKζ (Homo sapiens (Human), UniProt Q13574); experiment: DGKζ assay (detergent/lipid micelle substrate); assay type: biochemical
Chain of human DGKζ (Q13574 other isoform, or with tags, fused parts or gaps): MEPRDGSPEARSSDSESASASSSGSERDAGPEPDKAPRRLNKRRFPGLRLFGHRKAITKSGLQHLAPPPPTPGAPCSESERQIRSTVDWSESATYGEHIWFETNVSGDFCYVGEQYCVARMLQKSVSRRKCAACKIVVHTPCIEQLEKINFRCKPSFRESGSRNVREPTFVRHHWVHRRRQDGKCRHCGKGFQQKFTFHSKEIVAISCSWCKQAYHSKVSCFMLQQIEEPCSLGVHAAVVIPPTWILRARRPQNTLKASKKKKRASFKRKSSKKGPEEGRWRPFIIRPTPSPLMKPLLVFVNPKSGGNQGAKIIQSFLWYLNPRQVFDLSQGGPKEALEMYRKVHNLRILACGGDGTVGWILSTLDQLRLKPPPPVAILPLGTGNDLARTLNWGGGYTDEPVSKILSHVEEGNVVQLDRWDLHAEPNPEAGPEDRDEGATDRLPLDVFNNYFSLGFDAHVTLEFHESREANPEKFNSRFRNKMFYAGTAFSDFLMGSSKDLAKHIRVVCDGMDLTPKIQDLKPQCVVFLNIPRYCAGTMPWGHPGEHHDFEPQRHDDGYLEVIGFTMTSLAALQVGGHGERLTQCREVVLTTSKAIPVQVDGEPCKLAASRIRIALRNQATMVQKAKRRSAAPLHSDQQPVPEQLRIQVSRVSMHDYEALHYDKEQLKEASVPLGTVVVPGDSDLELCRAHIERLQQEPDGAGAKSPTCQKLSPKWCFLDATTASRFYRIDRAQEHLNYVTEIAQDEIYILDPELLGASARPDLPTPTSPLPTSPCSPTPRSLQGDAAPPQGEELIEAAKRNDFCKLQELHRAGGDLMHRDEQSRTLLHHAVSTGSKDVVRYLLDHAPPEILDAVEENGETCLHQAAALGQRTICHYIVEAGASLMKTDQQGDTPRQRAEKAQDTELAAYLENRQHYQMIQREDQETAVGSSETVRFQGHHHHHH
Procedure, shortened: as §1

naïve human CD8 T cells = experiment: CellTiter-Glo CD8 T Cell Proliferation Assay; assay type: cell-based; settings: Homo sapiens, T-cell, CellTiter-Glo CD8 T cell proliferation, normalized; read-out: CD8 GLO normalized EC50
Description: Frozen naïve human CD8 T cells were thawed in RPMI+10% FBS, incubated for 2 h in 37° C., and counted. The 384-well tissue culture plate was coated overnight at 4° C. with 20 μl anti-human CD3 at 0.1 μg/mL in plain RPMI, which was removed off the plate before 20 k/40 μl CD8 T cells with 0.5 μg/mL soluble anti-human CD28 were added to each well. The compounds were echoed to the cell plate immediately after the cells were plated. After 72 h incubation at 37° C. incubator, 10 μl CellTiter-glo reagent (Promega catalog number G7570) was added to each well. The plate was vigorously shaken for 5 mins, incubated at room temperature for another 15 mins and read on Envision for CD8 T cell proliferation. In analysis, 0.1 μg/mL anti-CD3 and 0.5 μg/mL anti-CD28 stimulated CD8 T cell signal was background.

[1] = test system: Jurkat AP1-luciferase Reporter; experiment: DGK AP1-Reporter Assay; assay type: cell-based; settings: Homo sapiens, Jurkat
Procedure, shortened: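 Jurkat cells carrying a lentiviral AP1-luciferase reporter received 30 nl compound per well for 20 min at 37 °C and 5% CO2. They were then stimulated for 6 h with anti-CD3 solution at 0.4 μg/mL; reference wells received 4 μg/mL and unstimulated wells medium only. Readout was Steady-Glo luciferase luminescence (RLU).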

[2] = test system: OT-1 antigen-specific CD8+ T cells with MC38 tumor cells; experiment: Murine Cytotoxic T Lymphocyte Assay (IFN-γ); assay type: cell-based, mouse; settings: Mus musculus, MC-38, read-out: msCTL INF-γ IC50, murine CTL IFN-γ (table title reads INF-γ Whole Blood Normalized Agonist EC50)
Text: An antigen-specific cytolytic T-cell (CTL) assay was developed to evaluate functionally the ability of DGKα and DGKζ inhibitors to enhance effector T cell mediated tumor cell killing activity. CD8+ T-cells isolated from the OT-1 transgenic mouse recognize antigen presenting cells, MC38, that present the ovalbumin derived peptide […]. Recognition of the cognate antigen initiates the cytolytic activity of the OT-1 antigen-specific CD8+ T cells.
Functional CTL cells were generated as follows: OT-1 splenocytes from 8-12 week old mice were isolated and expanded in the presence of the […] peptide at 1 μg/mL and mIL2 at 10 U/mL. After three days, fresh media with mIL2 U/mL was added. On day 5 of the expansion, the CD8+ T cells were isolated and ready for use. Activated CTL cells may be stored frozen for 6 months. […] The cells were washed (3×) with fresh media to remove excess peptide. Finally, CTL cells that were pretreated with DGK inhibitors for 1 hour in a 96-well U bottom plate were combined with the antigen loaded MC38 tumor cells at a 1:10 ratio. The cells were then spun at 700 rpm for 5 min and placed in an incubator overnight at 37° C. After 24 hours, the supernatant was collected for analysis of IFN-γ cytokine levels by AlphaLisa purchased from Perkin Elmer.

Human venous whole blood = experiment: Human Whole Blood IFN-γ Assay; assay type: cell-based; settings: Homo sapiens
Description: Human venous whole blood (22.5 μL per well), obtained from healthy donors, was pre-treated with compounds for one hour at 37° C. in a humidified 95% air/5% CO2 incubator. The blood was stimulated with 2.5 μL anti-human CD3 and anti-CD28 mAb at a final concentration of 1 μg/mL each for 24 hours at 37° C. IFN-γ in the supernatants was measured using AlphaLISA kit (Cat #AL217).

[3] = test system: pre-activated CD4 T cells and Raji cells; experiment: Raji CD4 T Cell IL2 Assay; assay type: cell-based; settings: Homo sapiens, Raji
[4] = detergent/lipid micelle substrate, read-out: DGKζ IC50
[5] = read-out: API-Luciferase Reporter IC50, Table 3
[6] = read-out: DGKAP1 Lucif Reporter IC50, Table 4

Chain of human DGKα (P23743 other isoform, or with tags, fused parts or gaps): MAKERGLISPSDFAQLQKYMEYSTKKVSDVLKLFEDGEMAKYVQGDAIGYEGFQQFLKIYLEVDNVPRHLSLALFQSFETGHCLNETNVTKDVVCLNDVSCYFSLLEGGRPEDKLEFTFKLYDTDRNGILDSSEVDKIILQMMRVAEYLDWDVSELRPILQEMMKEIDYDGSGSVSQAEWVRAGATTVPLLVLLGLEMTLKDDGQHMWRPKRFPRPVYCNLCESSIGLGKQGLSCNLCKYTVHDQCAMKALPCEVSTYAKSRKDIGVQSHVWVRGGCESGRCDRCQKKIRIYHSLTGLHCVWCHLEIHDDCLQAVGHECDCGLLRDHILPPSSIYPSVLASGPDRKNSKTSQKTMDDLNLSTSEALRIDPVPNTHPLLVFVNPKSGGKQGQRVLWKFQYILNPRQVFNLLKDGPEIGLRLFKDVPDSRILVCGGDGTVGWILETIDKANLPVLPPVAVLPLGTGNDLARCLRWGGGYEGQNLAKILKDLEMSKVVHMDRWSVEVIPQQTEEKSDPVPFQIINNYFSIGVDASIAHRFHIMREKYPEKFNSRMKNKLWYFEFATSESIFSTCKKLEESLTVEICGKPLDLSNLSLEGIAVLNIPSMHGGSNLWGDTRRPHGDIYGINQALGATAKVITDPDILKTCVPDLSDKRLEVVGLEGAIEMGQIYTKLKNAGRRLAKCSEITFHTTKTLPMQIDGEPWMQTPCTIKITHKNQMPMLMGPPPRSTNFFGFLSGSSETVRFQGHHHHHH

SMILES | pIC50 (human DGKα) | pIC50 (human DGKζ; [4]) | pEC50 (naïve human CD8 T cells) | pIC50 [1, 5] | pIC50 [1, 6] | pIC50 (human DGKζ; DGKζ IC50, detergent/lipid micelle substrate) | pIC50 [2] | pEC50 (Human venous whole blood; human whole blood, anti-CD3 plus anti-CD28 as baseline, 3 μM Example 40 co-stimulation as 100% activation, read-out: INF-γ Whole Blood Normalized Agonist EC50) | pEC50 (Human venous whole blood; read-out: INF-γ Whole Blood Agonist EC50) | pIC50 [3]
COc1ccccc1C(c1ccc(F)cc1)N1CCN(c2c(C#N)c(=O)n(CC3CC3)c3ccc(Br)nc23)CC1 (racemic) [Example 158, 6-bromo-1-(cyclopropylmethyl)-4-(4-((4-fluorophenyl)(2-methoxyphenyl)methyl)piperazin-1-yl)-2-oxo-1,2-dihydro-1,5-naphthyridine-3-carbonitrile] | < 3.62 | < 3.62 | 6.04 | 5.34 | 5.00 |  |  |  |  | 
CC(c1ccc(F)cc1)N1CCN(c2c(C#N)c(=O)n(CC3CC3)c3ccc(Br)nc23)CC1 (racemic) [Example 162, 6-bromo-1-(cyclopropylmethyl)-4-(4-(1-(4-fluorophenyl)ethyl)piperazin-1-yl)-2-oxo-1,2-dihydro-1,5-naphthyridine-3-carbonitrile] | 3.80 |  | 5.00 | 5.32 | 5.00 | < 3.62 |  |  |  | 
COCCn1c(=O)c([N+](=O)[O-])c(N2CCN(C(c3ccc(F)cc3)c3ccccc3O)CC2)c2nc(C#N)ccc21 (stereo not shown) [Example 145, 8-(4-((4-fluorophenyl)(2-hydroxyphenyl)methyl)piperazin-1-yl)-5-(2-methoxyethyl)-7-nitro-6-oxo-5,6-dihydro-1,5-naphthyridine-2-carbonitrile] | 4.52 | 5.64 |  | 6.24 |  |  | 6.34 | 5.73 | 5.88 | 
COc1ccc2c(c1)C(N1CCN(c3c(C#N)c(=O)n(CC#N)c4ccc(Br)nc34)CC1)CC2 (stereo not shown) [Example 156, 6-bromo-1-(cyanomethyl)-4-(4-(6-methoxy-2,3-dihydro-1H-inden-1-yl)piperazin-1-yl)-2-oxo-1,2-dihydro-1,5-naphthyridine-3-carbonitrile] | 3.77 | 3.85 | 6.85 | 5.00 | 5.00 |  |  |  |  | < 4.00
